# Laboratory results: ChEMBL document CHEMBL3351333, “Structural analysis of a novel small molecule ligand bound to the CXCL12 chemokine” (J Med Chem, 2014)
# Target: Stromal cell-derived factor 1 (Homo sapiens) (UniProt P48061)
# Experiment: Binding affinity to CXCL12 in human THP1 cells assessed as inhibition of CXCL12-induced cell migration at 25 uM incubated for 2 hrs by flow cytometry based chemotaxis assay
# Settings: THP-1
# Chain of Stromal cell-derived factor 1 (Homo sapiens) (P48061 whole entry): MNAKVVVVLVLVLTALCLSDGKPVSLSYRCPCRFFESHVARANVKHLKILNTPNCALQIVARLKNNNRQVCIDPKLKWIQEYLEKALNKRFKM
row,inhibition,SMILES
1,20%,O=C(Nc1ccccc1)Nc1ccc(-c2nnn[nH]2)cc1
2,40%,O=C(NCCc1ccccc1)Nc1ccc(-c2nnn[nH]2)cc1
